Measured values from patent publication US20130143929A1, “FUNGICIDAL IMIDAZOLES” (EI DU PONT DE NEMOURS AND COMPANY, priority 2010, published 2013).
Marks after values point to notes of the source that are not given here.

What was measured:
Assay type in all cases: in vivo
[1] = system: Puccinia recondite f. sp. tritici (the causal agent of wheat leaf rust); assay: Test A: wheat leaf rust, preventive spray on wheat seedlings, visual disease rating; conditions: for Test A rating (100 = 100% disease control, 0 = no disease control relative to the controls): wheat leaf rust, preventive spray on wheat seedlings; for Test A rating (% disease control, wheat leaf rust): 100 = 100% disease control
Outline: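 Wheat seedlings were sprayed to run-off with compound suspended in acetone/water containing 250 ppm Trem 014 (200 ppm ≈ 800 g/ha; some at 40 ppm). Puccinia recondite spores were inoculated the next day. Plants were held 24 h saturated at 20° C, then 7 days at 20° C, and disease control was rated visually on a 0–100 scale against controls.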

[2] = system: Septoria tritici (the causal agent of wheat leaf blotch); assay: Test B: wheat leaf blotch, preventive spray on wheat seedlings, visual disease rating; conditions: for Test B rating (100 = 100% disease control, 0 = no disease control relative to the controls): wheat leaf blotch, preventive spray on wheat seedlings; for Test B rating (% disease control, wheat leaf blotch): 100 = 100% disease control
Outline: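 Wheat seedlings sprayed to run-off with compound suspension (acetone/water with 250 ppm Trem 014; 200 ppm ≈ 800 g/ha, some at 40 ppm), inoculated next day with Septoria tritici spores. 48 h saturated humidity at 24 °C, then 19 days at 20 °C; visual rating, 100 = full control.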

[3] = system: Botrytis cinerea (the causal agent of tomato Botrytis); assay: Test C: tomato Botrytis, preventive spray on tomato seedlings, visual disease rating; conditions: for Test C rating (100 = 100% disease control, 0 = no disease control relative to the controls): tomato Botrytis, preventive spray on tomato seedlings; for Test C rating (% disease control, tomato Botrytis): 100 = 100% disease control
Outline: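 Test suspension (acetone/water with 250 ppm Trem 014; 200 ppm equivalent to 800 g/ha) sprayed to run-off on tomato seedlings; B. cinerea spores inoculated next day. After 48 h saturated humidity at 20° C then 3 days at 24° C, disease rated visually as % control relative to untreated controls (0–100).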

[4] = system: Blumeria graminis f. sp. tritici (also known as Erysiphe graminis f. sp. tritici, the causal agent of wheat powdery mildew); assay: Test D: wheat powdery mildew, preventive spray on wheat seedlings, visual disease rating; conditions: for Test D rating (100 = 100% disease control, 0 = no disease control relative to the controls): wheat powdery mildew, preventive spray on wheat seedlings; for Test D rating (% disease control, wheat powdery mildew): 100 = 100% disease control
Outline: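 Compound suspended in acetone/water (50/50) with 250 ppm Trem 014 and sprayed to run-off on wheat seedlings (200 ppm ≈ 800 g/ha), then inoculated next day with spore dust. Disease rated visually after 8 days at 20 °C as % control relative to untreated plants (0-100).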

[5] = asterisk: 40 ppm test suspension
[6] = no asterisk (standard test suspension concentration, not 40 ppm)
[7] = asterisk: 40 ppm test suspension, 0 = no control
[8] = no asterisk: standard test suspension concentration, 0 = no control relative to controls

SMILES	Test A rating (100 = 100% disease control, 0 = no disease control relative to the controls) [1, 5]	Test B rating (100 = 100% disease control, 0 = no disease control relative to the controls) [2, 5]	Test C rating (100 = 100% disease control, 0 = no disease control relative to the controls) [3, 5]	Test D rating (100 = 100% disease control, 0 = no disease control relative to the controls) [4, 5]	Test D rating (100 = 100% disease control, 0 = no disease control relative to the controls) [4, 6] [%]	other results
OC(c1ccc(F)cc1F)c1c(Br)ncn1-c1c(F)cc(Cl)cc1F (stereo not shown) [compound 119]	98* %	100* %	97* %	0* %	–	–
Cc1ncc(C(O)c2ccc(F)cc2)n1-c1c(F)cccc1F (stereo not shown) [compound 132]	–	–	–	–	0	Test A rating (100 = 100% disease control, 0 = no disease control relative to the controls) [1, 6]: 99%; Test B rating (100 = 100% disease control, 0 = no disease control relative to the controls) [2, 6]: 100%; Test C rating (100 = 100% disease control, 0 = no disease control relative to the controls) [3, 6]: 41%
OC(c1ccc(F)cc1F)c1c(Cl)ncn1-c1c(F)cc(F)cc1Cl (stereo not shown) [compound 118]	100* %	100* %	91* %	–	48	–
Cc1cc(F)ccc1C(O)c1c(C)nc(Cl)n1-c1c(F)cc(F)cc1Cl (racemic) [compound 13]	–	100* %	–	–	100	Test A rating (100 = 100% disease control, 0 = no disease control relative to the controls) [1, 6]: 100%; Test C rating (100 = 100% disease control, 0 = no disease control relative to the controls) [3, 6]: 99%
Cc1ccc(C(O)c2c(Br)nc(C)n2-c2c(F)cccc2F)c(F)c1 (stereo not shown) [compound 52]	99* %	100* %	37* %	35-* %	–	–
COc1cc(F)c(C(O)c2c(Br)nc(C)n2-c2ccc(F)cc2Br)c(F)c1 (stereo not shown) [compound 323]	100* %	100* %	100* %	99* %	–	–
Cc1cccc(Br)c1-n1c(C)nc(Br)c1C(O)c1ccc(F)cc1Cl (stereo not shown) [compound 335]	98* %	86* %	35* %	64* %	–	–
Cc1nc(Cl)c(C(O)c2ccc(Cl)cc2F)n1-c1c(F)cccc1F (stereo not shown) [compound 54]	98* %	100* %	80* %	69* %	–	–
Cc1nc(Br)c(C(O)c2ccc(Cl)cc2)n1-c1ccc(Cl)cc1Cl (racemic) [compound 243]	98* %	95* %	91* %	79* %	–	–
COc1ccc(C(O)c2c(Cl)nc(C)n2-c2c(F)cccc2F)c(F)c1 (stereo not shown) [compound 56]	100* %	100* %	100* %	13* %	–	–
OC(c1c(F)ccc(Br)c1Cl)c1c(Cl)nc(Cl)n1-c1ccc(F)cc1Cl (racemic) [compound 18]	–	–	–	–	91	Test A rating (100 = 100% disease control, 0 = no disease control relative to the controls) [1, 6]: 100%; Test B rating (100 = 100% disease control, 0 = no disease control relative to the controls) [2, 6]: 100%; Test C rating (100 = 100% disease control, 0 = no disease control relative to the controls) [3, 6]: 100%
COc1cc(F)c(-n2c(C)nc(Br)c2C(O)c2ccc(F)cc2C)c(F)c1 (stereo not shown) [compound 391]	–	–	–	–	–	Test A rating (% disease control, wheat leaf rust) [1, 7]: 99* %; Test B rating (% disease control, wheat leaf blotch) [2, 7]: 100* %; Test C rating (% disease control, tomato Botrytis) [3, 7]: 0* %; Test D rating (% disease control, wheat powdery mildew) [4, 7]: 0* %
Cc1cc(F)ccc1C(O)c1cnc(C)n1-c1c(F)cc(F)cc1Cl (stereo not shown) [compound 368]	–	–	–	–	0	Test A rating (100 = 100% disease control, 0 = no disease control relative to the controls) [1, 6]: 100%; Test B rating (100 = 100% disease control, 0 = no disease control relative to the controls) [2, 6]: 100%; Test C rating (100 = 100% disease control, 0 = no disease control relative to the controls) [3, 6]: 99%
COc1ccc(C(O)c2c(Br)nc(C)n2-c2c(F)cc(F)cc2Cl)c(F)c1 (stereo not shown) [compound 347]	100* %	100* %	82* %	69* %	–	–
Cc1nc(Cl)n(-c2ccc(F)cc2F)c1C(O)c1ccc(F)cc1Cl (racemic) [compound 35]	–	–	–	–	68	Test A rating (100 = 100% disease control, 0 = no disease control relative to the controls) [1, 6]: 100%; Test B rating (100 = 100% disease control, 0 = no disease control relative to the controls) [2, 6]: 100%; Test C rating (100 = 100% disease control, 0 = no disease control relative to the controls) [3, 6]: 100%
Cc1nc(Br)c(C(O)c2ccc(F)cc2Br)n1-c1c(F)cccc1Cl (stereo not shown) [compound 387]	–	–	–	–	–	Test A rating (% disease control, wheat leaf rust) [1, 7]: 100* %; Test B rating (% disease control, wheat leaf blotch) [2, 7]: 100* %; Test C rating (% disease control, tomato Botrytis) [3, 7]: 99* %; Test D rating (% disease control, wheat powdery mildew) [4, 8]: 90%
Cc1nc(Cl)n(-c2c(F)cc(F)cc2F)c1C(O)c1ccc(F)cc1F (stereo not shown) [compound 83]	100* %	100* %	99* %	100* %	–	–
Cc1nc(Cl)c(C(O)c2c(F)cc(F)cc2F)n1-c1ccc(F)cc1Cl (stereo not shown) [compound 128]	–	–	–	–	0	Test A rating (100 = 100% disease control, 0 = no disease control relative to the controls) [1, 6]: 100%; Test B rating (100 = 100% disease control, 0 = no disease control relative to the controls) [2, 6]: 100%; Test C rating (100 = 100% disease control, 0 = no disease control relative to the controls) [3, 6]: 99%
Cc1nc(Cl)c(C(O)c2c(Cl)cccc2Cl)n1-c1c(F)cccc1F (stereo not shown) [compound 193]	99* %	100* %	59* %	0* %	–	–
Cc1nc(Br)c(C(O)c2ccc(F)cc2F)n1-c1ccc(F)cc1Br (stereo not shown) [compound 334]	99* %	100* %	99* %	64* %	–	–
Cc1ncc(C(O)c2ccc(F)cc2F)n1-c1c(F)cccc1Br (stereo not shown) [compound 409]	–	–	–	–	–	Test A rating (% disease control, wheat leaf rust) [1, 8]: 99%; Test B rating (% disease control, wheat leaf blotch) [2, 8]: 100%; Test C rating (% disease control, tomato Botrytis) [3, 8]: 57%; Test D rating (% disease control, wheat powdery mildew) [4, 8]: 0%
COc1ccc(C(O)c2c(C)nc(Cl)n2-c2c(F)cccc2F)c(C)c1 (racemic) [compound 220]	100* %	100* %	100* %	97* %	–	–
Cc1ncc(C(O)c2ccc(Cl)cc2Cl)n1-c1c(F)cc(Cl)cc1F (stereo not shown) [compound 112]	74* %	100* %	0* %	0* %	–	–
COc1ccc(C(O)c2c(Br)nc(C)n2-c2ccc(F)cc2F)c(F)c1 (racemic) [compound 284]	100* %	100* %	41* %	0* %	–	–
Cc1nc(Br)c(C(O)c2c(F)cc(F)cc2F)n1-c1ccc(Cl)cc1Cl (stereo not shown) [compound 365]	–	–	–	–	64	Test A rating (100 = 100% disease control, 0 = no disease control relative to the controls) [1, 6]: 100%; Test B rating (100 = 100% disease control, 0 = no disease control relative to the controls) [2, 6]: 100%; Test C rating (100 = 100% disease control, 0 = no disease control relative to the controls) [3, 6]: 100%
